Laboratory results taken from patent US11319318B2, “Pyridinones and isoquinolinones as inhibitors of the bromodomain BRD9” (Boehringer Ingelheim International GmbH, priority 2015, dated 2022).

The molecules below were run against T1, bromodomain of BRD9 (GST-BRD9 aa 130-259) / H3 K9/14/18/23Ac(1-28) peptide (Homo sapiens, UniProt Q9H8M2) (assay: BRD9-H3 tetra-acetylated Peptide Inhibition AlphaScreen).
T1 construct: The protein corresponding to amino acids 130-259 that contains the bromodomain of BRD9; made in house; host or cells: E. coli
T1 sequence (Q9H8M2 130-259): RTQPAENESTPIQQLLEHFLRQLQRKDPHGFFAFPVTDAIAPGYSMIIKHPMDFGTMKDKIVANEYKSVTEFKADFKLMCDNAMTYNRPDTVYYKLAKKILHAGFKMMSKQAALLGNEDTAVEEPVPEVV
Assay type: binding
Source text: Biological Methods BRD9-H3 tetra-acetylated Peptide Inhibition AlphaScreen
This assay is used to identify compounds which inhibit the interaction of the bromodomain of BRD9 with a tetra-acetylated peptide based on the sequence of histone H3 (H3 K9/14/18/23Ac (1-28)).
AlphaScreen Beads (Perkin Elmer):
AlphaLISA Glutathione Acceptor Beads
AlphaScreen Streptavidin Donor Beads
The assay is done in a darkened room below 100 Lux.
Compounds are dispensed onto assay plates using an Access Labcyte Workstation with the Labcyte Echo 550 from a DMSO solution. For the chosen highest concentration of 100 μM, 150 nl of compound solution are transferred from a 10 mM DMSO solution. […] DMSO is added such that every well has a total of 150 nl of DMSO.
After 60 min at room temperature the signal is measured in a PerkinElmer Envision HTS Multilabel Reader using the AlphaScreen specifications from PerkinElmer.
Each plate contains negative controls where biotinylated H3 K9/14/18/23Ac(1-28) peptide and GST-BRD9 are left out and replaced by assay buffer. Negative control values are entered as low basis value when using the software GraphPad Prism for calculations.

Row | Structure (SMILES) | IC50 [nM]
1 | Cc1cc(-c2ccc([C@@H](C)N3CCCCC3)cc2)cn(C)c1=O [Compound I-4] | 172
2 | Cc1cc(-c2cc(C)c(=O)n(C)c2)ccc1S(=O)(=O)NCCN(C)C [Compound I-68] | 223
3 | CN1CCN(C(=O)c2ccc(-c3cn(C)c(=O)c4[nH]ccc34)cc2)CC1 [III-9] | 391
4 | Cc1cc(-c2cc(C)c(=O)n(C)c2)ccc1C1(N(C)C)CC1 [Compound I-60] | 143
5 | COc1cc(-c2cc(C)c(=O)n(C)c2C)c(OC)cc1CN1CCNCC1 [Compound I-156] | 1780
6 | Cc1cc(-c2cn(C)c(=O)c(C)c2C)ccc1C1(N2CCN(C)CC2)CC1 [Compound I-112] | 320
7 | COc1cc(S(=O)(=O)NC2CNC2)c(OC)cc1-c1cc(C)c(=O)n(C)c1C [Compound I-154] | 38
8 | Cc1c(-c2ccc([C@H](C)N)cc2)cn(C)c(=O)c1C [Compound I-138] | 1260
9 | COc1cc(-c2cn(C)c(=O)c(C)c2C)ccc1CN1C[C@H]2C[C@@H]1CN2C [Compound I-113] | 348
10 | COc1cc(-c2cc(C)c(=O)n(C)c2C)ccc1C1(N(C)C)CCC1 [Compound I-121] | 163
11 | COc1cc(-c2cc(C)c(=O)n(C)c2)ccc1CN1CC(Cl)C1 [Compound I-178, 5-[4-(3-Chloro-azetidin-1-ylmethyl)-3-methoxy-phenyl]-1,3-dimethyl-1H-pyridin-2-one] | 38
12 | Cc1c(-c2ccc(C(N)=O)cc2)cn(C)c(=O)c1C [Compound I-213] | 5320
13 | COc1cc(S(=O)(=O)N2CCNCC2)c(OC)cc1-c1cc(C)c(=O)n(C)c1 [Compound I-147] | 126
14 | Cn1cc(-c2ccc(C(=O)N3CCC3)cc2)c2cc[nH]c2c1=O [III-10] | 487
15 | Cc1cc(-c2ccc(C(=O)N3CCN(C)CC3)cc2)c(C)n(C)c1=O [Compound I-214] | 3210
16 | Cn1cc(-c2ccc(CN)cc2)c2ccccc2c1=O [II-48] | 1550
17 | Cc1cc(-c2ccc(S(=O)(=O)N3CCNCC3)cc2)cn(C)c1=O [Compound I-64] | 211
18 | Cc1cc(-c2ccc(CN3CCN(C)CC3)cc2)c(C)n(C)c1=O [Compound I-21] | 1690
19 | Cc1cc(-c2ccc(C(C)N3CCCC3)cc2)cn(C)c1=O (centres unmarked) [Compound I-5] | 137
20 | Cc1cc(-c2cc(C)c(=O)n(C)c2)c(C)cc1CN1CCN(C)CC1 [Compound I-187] | 4300
21 | COc1cc(-c2cc(I)c(=O)n(C)c2)ccc1C(=O)N1CCN(C)CC1 [Compound I-166] | 230
22 | Cc1cc(-c2ccc(CN3CCN(C)CC3)c(OC(C)C)c2)cn(C)c1=O [Compound I-196] | 1010
23 | COc1cc(-c2cc(C)c(=O)n(C)c2C)cc(OC)c1CN1CCN(C)CC1 [Compound I-132] | 322
24 | COc1cc(-c2cc(C)c(=O)n(C)c2C)c(OC)cc1CN1CCN(C)CC1 [Compound I-131] | 303

Row | Structure (SMILES) | IC50 [nM]
25 | Cc1cc(-c2ccc(CN)cc2)c(C)n(C)c1=O [Compound I-140] | 880
26 | COc1cc(-c2cc(C)c(=O)n(C)c2)cc(OC)c1CNC1CN(C)C1 [Compound I-205, 5-{3,5-Dimethoxy-4-[(1-methyl-azetidin-3-ylamino)-methyl]-phenyl}-1,3-dimethyl-1H-pyridin-2-one] | 69
27 | COCCOc1cc(-c2cc(C)c(=O)n(C)c2)ccc1CN1CCN(C)CC1 [Compound I-195, 5-[3-(2-Methoxy-ethoxy)-4-(4-methyl-piperazin-1-ylmethyl)-phenyl]-1,3-dimethyl-1H-pyridin-2-one] | 369
28 | Cc1c(-c2ccc(C(=O)C3CCNCC3)cc2)cn(C)c(=O)c1C [Compound I-115] | 740
29 | Cc1cc(-c2ccc3c(c2)CN(C)C3)cn(C)c1=O [Compound I-209, 1,3-Dimethyl-5-(2-methyl-2,3-dihydro-1H-isoindol-5-yl)-1H-pyridin-2-one] | 218
30 | CN1CCN(C(=O)c2ccc(-c3cn(C)c(=O)c4cncnc34)cc2)CC1 [II-51] | 5270
31 | Cc1cc(-c2ccc3c(c2)CNCC3)cn(C)c1=O [Compound I-90] | 950
32 | COc1cc(-c2cn(C)c(=O)c(C)c2C)ccc1CN1C[C@@H]2CC1CN2C [Compound I-108] | 152
33 | COc1cc(-c2cc(C)c(=O)n(C)c2)ccc1CN1C[C@@H]2CC1CN2 [Compound I-54] | 121
34 | Cc1cc(-c2ccc3c(c2)CNC3)cn(C)c1=O [Compound I-49, 5-(2,3-dihydro-1H-isoindol-5-yl)-1,3-dimethyl-1H-pyridin-2-one] | 65
35 | Cc1cc(-c2ccc(C(C)N3CCOCC3)cc2)cn(C)c1=O (centres unmarked) [Compound I-10] | 1080
36 | Cc1cc(-c2ccc([C@@H](C)N)cc2)c(C)n(C)c1=O [Compound I-141] | 1860
37 | COc1cc(-c2cc(C)c(=O)n(C)c2)ccc1CN1CC(N(C)C)C1 [Compound I-206, 5-[4-(3-Dimethylamino-azetidin-1-ylmethyl)-3-methoxy-phenyl]-1,3-dimethyl-1H-pyridin-2-one] | 479
38 | COc1cc(-c2cn(C)c(=O)c3cncnc23)cc(OC)c1CN1CC(O)C1 [II-11] | 42
39 | Cc1cc(-c2ccc(C3(N(C)C)CCC3)cc2)cn(C)c1=O [Compound I-66] | 213
40 | COc1cc(-c2cc(C)c(=O)n(C)c2)ccc1S(=O)(=O)N1CCN(C)CC1 [Compound I-82] | 515
41 | COc1cc(-c2cn(C)c(=O)c(I)c2C)cc(OC)c1CN(C)C [Compound I-167] | 41
42 | Cn1cc(-c2ccc(C(=O)N3CCNCC3)cc2)c2ncncc2c1=O [II-13] | 589
43 | Cn1cc(-c2ccc(C(=O)N3CCNCC3)cc2)c2cccnc2c1=O [II-14] | 1380
44 | COc1cc(-c2cc(C)c(=O)n(C)c2)ccc1C(=O)N1C[C@@H]2CC1CN2 [Compound I-76] | 409
45 | COc1cc(-c2cc(C)c(=O)n(C)c2)cc(C)c1C(=O)N1CCNCC1 [Compound I-159] | 167
46 | COc1cc(-c2cn(C)c(=O)c3cncnc23)cc(OC)c1CNC1CNC1 [II-33] | 23
47 | COc1cc(-c2cn(C)c(=O)c3ccccc23)ccc1CN(C)C [II-41, 4-(4-Dimethylaminomethyl-3-methoxy-phenyl)-2-methyl-2H-isoquinolin-1-one] | 126
48 | Cc1cc(-c2ccc(CN3CCNCC3)c(N(C)C)c2)cn(C)c1=O [Compound I-149, 5-(3-Dimethylamino-4-piperazin-1-ylmethyl-phenyl)-1,3-dimethyl-1H-pyridin-2-one] | 160

Row | Structure (SMILES) | IC50 [nM]
49 | Cc1cc(-c2ccc([C@@H](C)N3CCCC3)cc2)cn(C)c1=O [Compound I-1, 1,3-Dimethyl-5-[4-((R)-1-pyrrolidin-1-yl-ethyl)-phenyl]-1H-pyridin-2-one] | 105
50 | CN(C)Cc1ccc(-c2cn(C)c(=O)c3ccc(Cn4cccn4)cc23)cc1 [II-20] | 178
51 | COc1cc(-c2cn(C)c(=O)c3[nH]ccc23)ccc1CN1C[C@H]2C[C@@H]1CN2C [III-2, 4-[3-Methoxy-4-((1R,4R)-5-methyl-2,5-diaza-bicyclo[2.2.1]hept-2-ylmethyl)-phenyl]-6-methyl-1,6-dihydro-pyrrolo[2,3-c]pyridin-7-one] | 39
52 | Cc1cc(-c2cc(C)c(=O)n(C)c2C)ccc1C1(N2CCN(C)CC2)CC1 [Compound I-135] | 851
53 | COc1cc(S(=O)(=O)N2CCN(C)CC2)c(OC)cc1-c1cc(C)c(=O)n(C)c1 [Compound I-70] | 237
54 | Cc1cc(-c2ccc(C3(N4CCN(C)CC4)CC3)cc2)cn(C)c1=O [Compound I-95] | 1210
55 | CN(C)Cc1ccc(-c2cn(C)c(=O)c3ccccc23)cc1 [II-5] | 916
56 | COc1cc(-c2cc(C)c(=O)n(C)c2)c(OC)cc1CN1CC(O)C1 [Compound I-55] | 124
57 | Cc1cc(-c2ccc(C3(N(C)C)CC3)cc2)cn(C)c1=O [Compound I-58] | 137
58 | Cc1c(-c2ccc(C(=O)N3CCNCC3)cc2)cc(I)c(=O)n1C [Compound I-22] | 235
59 | C[C@@H](N)c1ccc(-c2cn(C)c(=O)c3ccccc23)cc1 [II-44] | 917
60 | Cc1cc(-c2cccc(CN)c2)cn(C)c1=O [Compound I-87] | 849
61 | COc1cc(-c2cc(C)c(=O)n(C)c2)ccc1S(=O)(=O)NCCN(C)C [Compound I-65] | 213
62 | COc1cc(-c2cn(C)c(=O)c3cncnc23)cc(OC)c1CN1CC(N)C1 [II-30, 8-[4-(3-Amino-azetidin-1-ylmethyl)-3,5-dimethoxy-phenyl]-6-methyl-6H-pyrido[4,3-d]pyrimidin-5-one] | 5
63 | Cc1cc(-c2ccc(C(=O)C3CCNCC3)cc2)c(C)n(C)c1=O [Compound I-129] | 284
64 | COc1cc(-c2cc(C)c(=O)n(C)c2)c(OC)cc1CN1CCN(C)CC1 [Compound I-62] | 181
65 | Cc1cc(-c2ccc(Cn3ccnc3)cc2)cn(C)c1=O [Compound I-185] | 1550
66 | CCOc1cc(-c2cc(C)c(=O)n(C)c2)ccc1CN1CCN(C)CC1 [Compound I-197, 5-[3-Ethoxy-4-(4-methyl-piperazin-1-ylmethyl)-phenyl]-1,3-dimethyl-1H-pyridin-2-one] | 468
67 | Cc1cc(-c2cn(C)c(=O)c(C)c2C)ccc1C(=O)N1CCN(C)CC1 [Compound I-117] | 1400
68 | COc1cc(-c2cc(C)c(=O)n(C)c2)ccc1CN1CCN(Cc2cccc(O)c2)CC1 [Compound I-200] | 132
69 | COc1cc(-c2cn(C)c(=O)c3[nH]ccc23)ccc1C(=O)N1CCN(C)CC1 [III-7] | 95
70 | CCc1cc(-c2cc(C)c(=O)n(C)c2)cc(OC)c1C(O)CC (centres unmarked) [Compound I-71] | 289
71 | Cc1cc(-c2ccc(CN3CCN(C)CC3)c(O)c2)cn(C)c1=O [Compound I-194, 5-[3-Hydroxy-4-(4-methyl-piperazin-1-ylmethyl)-phenyl]-1,3-dimethyl-1H-pyridin-2-one] | 458
